Assay results reported in the supplement of paper PMC10883282.

What was measured:
Assay in all cases: relative viability vs DMSO control (72 h) (fraction); higher = more viable cells
[1] = tested on: MES-SA
In short: (§1)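 Serially diluted compound, 2.5 µl from source plates spanning 10 mM to 0.0002 mM, was added 24 h after sarcoma cell lines were seeded in 384-well plates at densities targeting 80–90% confluence. Plates then sat 72 h at 37 °C, 5% CO2, with 0.1% DMSO vehicle and a 5 µM positive control. Relative viability came from ATPLite as percent growth, averaged over up to triplicate wells, and was rescaled with 1 as full and 0 as none.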

[2] = tested on: SK-LMS-1
In short: as §1

[3] = tested on: SK-ES-1
In short: as §1

[4] = tested on: SYO-1
In short: as §1

[5] = tested on: SW1353
In short: as §1

[6] = tested on: RD-ES
In short: as §1

[7] = tested on: VA-ES-BJ
In short: as §1

[8] = tested on: HT1080
In short: as §1

[9] = tested on: RD
In short: as §1

[10] = tested on: KHOS-240S
In short: as §1

[11] = tested on: SW982
In short: as §1

[12] = tested on: G401
In short: as §1

Cc1nc(Nc2ncc(C(=O)Nc3c(C)cccc3Cl)s2)cc(N2CCN(CCO)CC2)n1 [Dasatinib]
Conditions | relative viability
[1], 0.00017 µM | 0.935
[1], 0.00051 µM | 0.919
[1], 0.00152 µM | 0.903
[1], 0.00457 µM | 0.91
[1], 0.01372 µM | 0.879
[1], 0.04115 µM | 0.825
[1], 0.1235 µM | 0.799
[1], 0.3704 µM | 0.791
[1], 1.111 µM | 0.8428
[1], 3.333 µM | 0.728
[1], 10 µM | 0.258
[2], 0.00017 µM | 1.03
[2], 0.00051 µM | 1.06
[2], 0.00152 µM | 1.09
[2], 0.00457 µM | 1.04
[2], 0.01372 µM | 1.03
[2], 0.04115 µM | 0.895
[2], 0.1235 µM | 0.722
[2], 0.3704 µM | 0.623
[2], 1.111 µM | 0.611
[2], 3.333 µM | 0.656
[2], 10 µM | 0.4228
[3], 0.00017 µM | 1.04
[3], 0.00051 µM | 1.03
[3], 0.00152 µM | 1.038
[3], 0.00457 µM | 1.05
[3], 0.01372 µM | 1.02
[3], 0.04115 µM | 0.975
[3], 0.1235 µM | 0.993
[3], 0.3704 µM | 0.934
[3], 1.111 µM | 0.896
[3], 3.333 µM | 0.673
[3], 10 µM | 0.402
[4], 0.00017 µM | 0.917
[4], 0.00051 µM | 0.923
[4], 0.00152 µM | 0.91
[4], 0.00457 µM | 0.865
[4], 0.01372 µM | 0.779
[4], 0.04115 µM | 0.704
[4], 0.1235 µM | 0.645
[4], 0.3704 µM | 0.573
[4], 1.111 µM | 0.528
[4], 3.333 µM | 0.415
[4], 10 µM | 0.188
[5], 0.00017 µM | 0.979
[5], 0.00051 µM | 0.982
[5], 0.00152 µM | 0.996
[5], 0.00457 µM | 0.956
[5], 0.01372 µM | 0.888
[5], 0.04115 µM | 0.704
[5], 0.1235 µM | 0.59
[5], 0.3704 µM | 0.46
[5], 1.111 µM | 0.4271
[5], 3.333 µM | 0.411
[5], 10 µM | 0.372
[6], 0.00017 µM | 0.989
[6], 0.00051 µM | 0.966
[6], 0.00152 µM | 0.966
[6], 0.00457 µM | 0.962
[6], 0.01372 µM | 0.958
[6], 0.04115 µM | 0.949
[6], 0.1235 µM | 0.9274
[6], 0.3704 µM | 0.918
[6], 1.111 µM | 0.92
[6], 3.333 µM | 0.759
[6], 10 µM | 0.483
[7], 0.00017 µM | 1.04
[7], 0.00051 µM | 1.04
[7], 0.00152 µM | 1.04
[7], 0.00457 µM | 0.996
[7], 0.01372 µM | 0.856
[7], 0.04115 µM | 0.688
[7], 0.1235 µM | 0.502
[7], 0.3704 µM | 0.447
[7], 1.111 µM | 0.413
[7], 3.333 µM | 0.335
[7], 10 µM | 0.246
[8], 0.00017 µM | 1.03
[8], 0.00051 µM | 1.05
[8], 0.00152 µM | 1.04
[8], 0.00457 µM | 1.01
[8], 0.01372 µM | 1.02
[8], 0.04115 µM | 0.989
[8], 0.1235 µM | 0.924
[8], 0.3704 µM | 0.895
[8], 1.111 µM | 0.907
[8], 3.333 µM | 0.873
[8], 10 µM | 0.535
[9], 0.00017 µM | 1.12
[9], 0.00051 µM | 1.12
[9], 0.00152 µM | 1.09
[9], 0.00457 µM | 1.02
[9], 0.01372 µM | 0.953
[9], 0.04115 µM | 0.775
[9], 0.1235 µM | 0.536
[9], 0.3704 µM | 0.458
[9], 1.111 µM | 0.426
[9], 3.333 µM | 0.366
[9], 10 µM | 0.267
[10], 0.00017 µM | 1.06
[10], 0.00051 µM | 1.04
[10], 0.00152 µM | 1.01
[10], 0.00457 µM | 0.957
[10], 0.01372 µM | 0.816
[10], 0.04115 µM | 0.708
[10], 0.1235 µM | 0.494
[10], 0.3704 µM | 0.337
[10], 1.111 µM | 0.279
[10], 3.333 µM | 0.25
[10], 10 µM | 0.198
[11], 0.00017 µM | 1.05
[11], 0.00051 µM | 1.04
[11], 0.00152 µM | 1.04
[11], 0.00457 µM | 0.99
[11], 0.01372 µM | 0.854
[11], 0.04115 µM | 0.641
[11], 0.1235 µM | 0.389
[11], 0.3704 µM | 0.277
[11], 1.111 µM | 0.259
[11], 3.333 µM | 0.258
[11], 10 µM | 0.218
[12], 0.00017 µM | 1
[12], 0.00051 µM | 0.996
[12], 0.00152 µM | 1.015
[12], 0.00457 µM | 1
[12], 0.01372 µM | 0.959
[12], 0.04115 µM | 0.876
[12], 0.1235 µM | 0.833
[12], 0.3704 µM | 0.789
[12], 1.111 µM | 0.7831
[12], 3.333 µM | 0.69
[12], 10 µM | 0.391
